{"source": "patent US11512097B2", "about": "“Heterocyclic compounds as Delta-5 desaturase inhibitors and methods of use” (Amgen Inc., priority 2019, dated 2022)", "note": "pIC50: −log10 of the molar value.", "data": [{"biological_target": "T1, Delta-5-Desaturase (D5D), membrane preparations of D5D-overexpressing HEK293 6E cells (Homo sapiens, UniProt O60427)", "T1 construct": "expressed in transfected cells; host or cells: HEK293 6E cells (membrane preparation)", "T1 sequence (O60427 whole entry, species assumed)": "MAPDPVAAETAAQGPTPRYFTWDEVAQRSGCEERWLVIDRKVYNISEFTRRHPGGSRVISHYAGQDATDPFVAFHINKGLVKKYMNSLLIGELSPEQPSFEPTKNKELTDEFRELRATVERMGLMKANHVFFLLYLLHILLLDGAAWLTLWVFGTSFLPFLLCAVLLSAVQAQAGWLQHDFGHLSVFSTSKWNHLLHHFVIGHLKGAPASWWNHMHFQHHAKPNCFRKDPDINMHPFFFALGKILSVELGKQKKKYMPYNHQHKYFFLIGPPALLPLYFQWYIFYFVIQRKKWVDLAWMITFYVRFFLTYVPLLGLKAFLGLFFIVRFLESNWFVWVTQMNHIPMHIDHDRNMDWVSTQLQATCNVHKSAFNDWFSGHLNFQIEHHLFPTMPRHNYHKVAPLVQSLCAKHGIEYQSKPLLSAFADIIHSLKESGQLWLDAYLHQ", "assay": "In vitro measurement of Delta-5-Desaturase inhibitory activity using DGLA-CoA and Arachidonyl-CoA mass spectrometric assays", "format": "biochemical", "details": "D5D membrane 10 μg/mL, one-hour incubation, average of at least two independent runs", "experimental": "In Vitro Measurement of Delta-5-Desaturase Inhibitory Activity Using DGLA-CoA and Arachidonyl-CoA Mass Spectrometric Assays Membrane preparations of D5D-overexpressing HEK293 6E cells were prepared in which the total protein concentration was 5.6 mg/mL. Stock D5D membrane preparations were diluted in D5D assay buffer (25 mM 2-amino-2-(hydroxymethyl)-1,3-propanediol, pH 7.5 containing 10 mM MgCl2, 1 mM octyl glucoside (SigmaAldrich O-8001), 1 mM tris(2-carboxyethyl)phosphine hydrochloride (SigmaAldrich 646547)) to a final D5D membrane concentration of 10 μg/mL in an assay plate containing serially diluted test compounds. To 15 μL of this D5D preparation was added 15 μL of a substrate solution (0.25 mM NADH (nicotinamide adenine dinucleotide, Roche Diag. 10107735001), 0.25 mM adenosine triphosphate (SigmaAldrich A-3377), 0.05 mM coenzyme A hydrate (SigmaAldrich C-4282), and 0.01 mM DGLA (dihomo-g-linolenic acid, Sigma E-4504) in the same D5D assay buffer. After one-hour incubation at ambient temperature acetonitrile (30 μL) was added to quench the reaction and plates were centrifuged for 10 min @ 3,000 rpm. Mass spectrometric analysis involved a Rapidfire 360 SPE system coupled to an ABSciex API4000 Triple Quadrupole mass spectrometer using a C18 SPE cartridge (G9203-80105) with ionization in negative mode (solvent A=100% water; solvent B=100% acetonitrile, each solvent containing 5 mM ammonium acetate). DGLA-CoA and Arachidonyl-CoA were detected by multiple reaction monitoring (MRM) of the doubly charged parent ions at m/z 526.6 and 525.6, respectively. […] Sx is value from unknown sample, So is value from DMSO alone and Sc is value from no enzyme well. For CRC analysis, the % of inhibitions were analysed with 4 Parameter Logistic Model or Sigmoidal Dose-Response Model using XLfit (IDBS, Guilford, UK). The potency of the test item was expressed as IC50 nM, corresponding to the test item concentration able to inhibit the 50% of the enzyme maximal response. IC50 values were averaged values determined by at least two independent runs. The results presented in Table 15 have been generated with the in vitro assay described above. This assay may be used to test any of the compounds described herein to assess and characterize a compound's ability to inhibit D5D.", "values": [{"compound": "Cc1cn2c(=O)c(-c3cnn(CCC(F)(F)F)c3)c(C(F)(F)F)nc2n1C", "note": "[Example 53, 1,2-dimethyl-7-(trifluoromethyl)-6-[1-(3,3,3-trifluoropropyl)-1H-pyrazol-4-yl]-1H,5H-imidazo[1,2-a]pyrimidin-5-one]", "pIC50": 8.19}, {"compound": "Cc1cn2c(=O)c(-c3ccc(OCC(F)(F)F)cc3)c(C(F)(F)F)nc2n1C", "note": "[Example 54, 1,2-dimethyl-6-[4-(2,2,2-trifluoroethoxy)phenyl]-7-(trifluoromethyl)-1H,5H-imidazo[1,2-a]pyrimidin-5-one]", "pIC50": 7.77}, {"compound": "COCc1cn2c(=O)c(-c3cnn(CC(F)(F)C(F)(F)F)c3)c(C(F)(F)F)nc2n1C", "note": "[Example 55, 2-(methoxymethyl)-1-methyl-6-[1-(2,2,3,3,3-pentafluoropropyl)-1H-pyrazol-4-yl]-7-(trifluoromethyl)-1H,5H-imidazo[1,2-a]pyrimidin-5-one]", "pIC50": 6.68}, {"compound": "CCn1c(C)cn2c(=O)c(-c3cnn(CC(F)(F)C(F)(F)F)c3)c(C(F)(F)F)nc12", "note": "[Example 56, 1-ethyl-2-methyl-6-[1-(2,2,3,3,3-pentafluoropropyl)-1H-pyrazol-4-yl]-7-(trifluoromethyl)-1H,5H-imidazo[1,2-a]pyrimidin-5-one]", "pIC50": 7.46}, {"compound": "COCCn1c(C)cn2c(=O)c(-c3cnn(CC(F)(F)C(F)(F)F)c3)c(C(F)(F)F)nc12", "note": "[Example 57, 1-(2-methoxyethyl)-2-methyl-6-[1-(2,2,3,3,3-pentafluoropropyl)-1H-pyrazol-4-yl]-7-(trifluoromethyl)-1H,5H-imidazo[1,2-a]pyrimidin-5-one]", "pIC50": 6.84}, {"compound": "Cc1cn2c(=O)c(-c3cnn(CC(F)(F)C(F)(F)F)c3)c(C(F)(F)F)nc2n1C(C)C", "note": "[Example 58, 2-methyl-6-[1-(2,2,3,3,3-pentafluoropropyl)-1H-pyrazol-4-yl]-1-(propan-2-yl)-7-(trifluoromethyl)-1H,5H-imidazo[1,2-a]pyrimidin-5-one]", "pIC50": 7.50}, {"compound": "Cc1cn2c(=O)c(-c3cnn(CC4CC4(F)F)c3)c(C(F)(F)F)nc2n1C", "note": "(stereo not shown) [Example 59, 6-{1-[(2,2-difluorocyclopropyl)methyl]-1H-pyrazol-4-yl}-1,2-dimethyl-7-(trifluoromethyl)-1H,5H-imidazo[1,2-a]pyrimidin-5-one]", "pIC50": 7.96}, {"compound": "Cc1cn2c(=O)c(-c3cnn(CC4CC(F)(F)C4)c3)c(C(F)(F)F)nc2n1C", "note": "[Example 60, 6-{1-[(3,3-difluorocyclobutyl)methyl]-1H-pyrazol-4-yl}-1,2-dimethyl-7-(trifluoromethyl)-1H,5H-imidazo[1,2-a]pyrimidin-5-one]", "pIC50": 7.24}, {"compound": "Cc1cn2c(=O)c(-c3cnn(CC4CC4)c3)c(C(F)(F)F)nc2n1C", "note": "[Example 61, 6-[1-(cyclopropylmethyl)-1H-pyrazol-4-yl]-1,2-dimethyl-7-(trifluoromethyl)-1H,5H-imidazo[1,2-a]pyrimidin-5-one]", "pIC50": 7.13}, {"compound": "Cc1cn2c(=O)c(-c3cnn(CC(F)(F)C(F)(F)F)c3)c(C(F)(F)F)nc2n1CC1CC1", "note": "[Example 62, 1-(cyclopropylmethyl)-2-methyl-6-[1-(2,2,3,3,3-pentafluoropropyl)-1H-pyrazol-4-yl]-7-(trifluoromethyl)-1H,5H-imidazo[1,2-a]pyrimidin-5-one]", "pIC50": 8.54}, {"compound": "COCc1cn2c(=O)c(-c3cnn(CCC(F)(F)F)c3)c(C(F)(F)F)nc2n1C", "note": "[Example 63, 2-(methoxymethyl)-1-methyl-7-(trifluoromethyl)-6-[1-(3,3,3-trifluoropropyl)-1H-pyrazol-4-yl]-1H,5H-imidazo[1,2-a]pyrimidin-5-one]", "pIC50": 6.80}, {"compound": "Cc1cn2c(=O)c(-c3cnn(CC(F)(F)C(F)(F)F)c3)c(C(F)(F)F)nc2n1CC(C)O", "note": "(stereo not shown) [Example 64, 1-(2-hydroxypropyl)-2-methyl-6-[1-(2,2,3,3,3-pentafluoropropyl)-1H-pyrazol-4-yl]-7-(trifluoromethyl)-1H,5H-imidazo[1,2-a]pyrimidin-5-one]", "pIC50": 6.62}, {"compound": "Cc1cn2c(=O)c(-c3cnn(CC4COC4)c3)c(C(F)(F)F)nc2n1C", "note": "[Example 65, 1,2-dimethyl-6-{1-[(oxetan-3-yl)methyl]-1H-pyrazol-4-yl}-7-(trifluoromethyl)-1H,5H-imidazo[1,2-a]pyrimidin-5-one]", "pIC50": 6.09}]}]}
